“And” between values parts separate entries of the source, which are not always exact repeats. Equal entries are not always repeated.
experiment: A mix consisting of 20 nM GST-MDM2 protein (aa 23-117) and 20 nM biotinylated p53 wt peptide (encompassing aa 16-27 of wt human p53, amino acid sequence QETFSDLWKLLP-Ttds-Lys-Biotin, molecular weight 2132.56 g/mol) is prepared in assay buffer (50 mM Tris/HCl pH 7.2; 120 mM NaCl; 0.1% bovine serum albumin (BSA); 5 mM dithiothreitol (DTT); 1 mM ethylenediaminetetraacetic acid (EDTA); 0.01% Tween 20). 30 μL of the mix is added to the compound dilutions and incubated for 15 min at rt while gently shaking the plate at 300 rounds per minute (rpm). Subsequently, 15 μL of premixed AlphaLISA Glutathione Acceptor Beads and AlphaScreen Streptavidin Donor Beads from PerkinElmer (in assay buffer at a concentration of 10 μg/mL each) are added and the samples are incubated for 30 min at rt in the dark (shaking 300 rpm). Afterwards, the signal is measured in a PerkinElmer Envision HTS Multilabel Reader using the AlphaScreen protocol from PerkinElmer.Each plate contains negative controls where biotinylated p53-peptide and GST-MDM2 are left out and replaced by assay buffer. Negative control values are entered as low basis value when using the software GraphPad Prism for calculations.

IC50	Structure (SMILES)
15 nM	CC(=O)Nc1ccc2c(c1)nc1n2CC[C@H]2[C@@H]1[C@H](c1cccc(Cl)c1F)[C@]1(C(=O)Nc3cc(Cl)ccc31)N2C(C)C1CC1 (some centres undefined)
3 nM	COC(=O)c1ccc2c(c1)nc1n2CC[C@H]2[C@@H]1[C@H](c1cccc(Cl)c1F)[C@]1(C(=O)Nc3cc(Cl)ccc31)N2CC1CC1
12 nM and 7 nM	CC(C1CC1)N1[C@H]2CCn3c(nc4cc(S(C)(=O)=O)ccc43)[C@H]2[C@H](c2cccc(Cl)c2F)[C@]12C(=O)Nc1cc(Cl)ccc12 (some centres undefined)

Structure (SMILES)	IC50
CS(=O)(=O)OCCN1[C@H]2CCn3c(nc4cc(C(=O)O)ccc43)[C@H]2[C@H](c2cccc(Cl)c2F)[C@]12C(=O)Nc1cc(Cl)ccc12	58 nM

Source: ChEMBL document CHEMBL5728204, “Spiro[3H-indole-3,2′-pyrrolidin]-2(1H)-one compounds and derivatives as MDM2-P53 inhibitors” (2021)
